This is an account of results in patent US5686495A, “Substituted hydrazinedicarboximidamides and methods of use thereof” (Cambridge NeuroScience, Inc., priority 1995, dated 1997).

Counter-ions that a name gives are not always drawn. Like-named read-outs stand apart in the source and are kept apart here.

The test system of assay [1] is 3H-glutamate release from rat brain synaptosomes. The assay is described as follows: Inhibition of K+-evoked 3H-glutamate release from synaptosomes (rapid superfusion). The format is cell-based. Particulars: Rattus norvegicus; for activity at 30 µM / activity at 100 µM: read-out: relative level of glutamate release. How it is done: To study the release of presynaptic ^3 H-glutamate, synaptosomes from young rats were used. CD Male rats of 4 to 6 weeks (50-75 g) were used for the preparation of synaptosomes. Rats were killed by decapitation with guillotine and the skull bone was opened in the center with the pointed blade of dissection scissors. The bone is then peeled away with a bone cutter and the brain is pried with a micro spatula. The cerebellum is removed and the rest of the brain is placed in 35 ml of 0.32M Sucrose solution and homogenized in a Thomas glass teflon homogenizer C at the maximum power setting (about 450 rpm) with 16 strokes. The pestle is rinsed with 5 ml of sucrose solution and added to the homogenate. The homogenate is centrifuged for 10 min at 3500 rpm (1500 g) in a SS-34 rotor in Sorvall RC-5B. The resulting pellet (P1) is discarded and the supernatant (S1) is recentrifuged for 20 min at 8700 rpm (8500 g). The supernatant (S2) is discarded and the pellet (P2) is resuspended in 5 ml of 0.32M sucrose and hand homogenized with 4 strokes (Thomas C) and the volume was made up to 8 ml. This homogenate was layered on 20 ml of 0.8M sucrose solution in two centrifuge tubes and spun for 25 minutes at 8700 rpm (8500 g). At the end of this spin, most of the myelin stays at the interphase of 0.32M and 0.8M sucrose and mitochondria pellet as a brown pellet. The synaptosomes are dispersed in the 0.8M sucrose. Using a 10 ml pipette, the 0.8M sucrose layer is collected (without disturbing the top myelin layer or the pellet) and diluted slowly with an equal volume of chilled basal buffer, while stirring gently with a Pasteur pipette. This diluted solution is centrifuged for 10 min at 10,000 rpm (12,000 g) and the pellet is resuspended in 1.5 ml of basal buffer and hand-homogenized in a Wheaton glass-glass 7 ml homogenizer with 8 strokes.
The synaptosomal homogenate is diluted 1 ml to 10 ml with basal buffer. This dilution gives a protein concentration of 500 to 600 μg/ml. One hundred μl of this diluted prep with 50-60 μg of protein is used for each superfusion event. […] The diluted synaptosomal solution was kept on ice until the end of the experiment.
^3 H-glutamate (purchased from NEN) is stored in the refrigerator. Pipette 6 μl ([…]; 40 to 55 Ci/mmol) into a disposable test tube. Add 100 μl of diluted prep and mix gently on vortex and incubate at 30° C. for 10 min. ^3 H-glutamate is taken up by sodium-coupledglutamate transporter present in synaptosomal membranes. After 10 min, dilute the incubation mixture with 690 μl of basal buffer. This solution is then transferred in Tygon tubing that is connected to the synaptosome loading chamber. Using a syringe filler with air, the solution is forced through the Millipore SC--GF/F--Millipore SC filter sandwich. These filters retain the synaptosomes and the solution flows through.
An important component of the superfusion setup is the custom made stainless steel "General Valve" three-valve solenoid operated superfusion chamber with an outlet for the effluent. The three inlets are connected to stainless steel buffer reservoirs that contain (1) wash buffer, (2) control buffer and (3) experimental buffer which are kept under 40 psi of nitrogen gas through teflon tubing connections. The superfusion is controlled through a menu-driven program on an Apple IIe computer. See Turner, J. T. et al., Anal. Biochem. 178:8-16 (1989), and U.S. Pat. No. 4,891,185, the disclosures of which are fully incorporated by reference herein.
The superfusion chamber has a teflon bushing and a stainless steel washer fixed with the flat surface facing the filters. A GF/B filter disc is placed first in the chamber to eliminate the switching related artifacts. The synaptosome loaded sandwich is then placed facing the synaptosomes into the flow followed by RA filter, stainless steel screen and a washer with the flat side facing the screen.

Assay [2] deals with potassium-stimulated 45Ca uptake of synaptosomes. Put plainly: Potassium-stimulated 45Ca uptake into synaptosomes. The format is cell-based, rat. The protocol:
Several compounds were also tested to determine whether the Ca^2+ dependent and independent components of glutamate release are related to the blockage of ^45 Ca uptake. Calcium uptake is one step in the cascade of events which occur in neuronal cell death from ischemia. See Bassaclough and Leach, Current Patents Ltd., 2-27. The Ca-flux protocol is as follows. Rat brain synaptosomes were prepared according to Hajos, Brain Res. 93:485 (1975). Synaptosomes were suspended in low potassium "LK" buffer (containing 3 mM KCl) at 2 mg/ml. […] After 5 seconds, the ^45 Ca flux was stopped with 0.9 ml quench solution (LK+10 mM EGTA). The solution was filtered under vacuum and the filters washed with 15 ml of quench buffer. The effect of drug is expressed as % inhibition (or block) of control potassium-stimulated ^45 Ca influx. This method is an adaptation of the method disclosed by Nachsen and Blaustein, J. Physiol. 361:251-268 (1985).

Where [3] appears, read: Rattus norvegicus, read-out: Inhibition of 45Ca Uptake, % Inhibition @ 10 uM (SEM).
Where [4] appears, read: Rattus norvegicus, read-out: % Uptake vs. Control.
Where [5] appears, read: Rattus norvegicus; read-out: Inhibition of 45Ca Uptake, IC50.
The mark [6] stands for this setting: 10 μM; potassium-stimulated uptake of calcium into synaptosomes.

By inhibition is commonly meant the relative decrease from the control value, in per cent. For the compound `N=C(Nc1ccc(O)c2ccccc12)Nc1ccc2c3c(cccc13)CC2` [N-(5-acenaphthyl)-N'-(4-hydroxynaphthyl)guanidine], the inhibition at 10 µM in assay [1] (read-out: Inhibition of Glutamate Release (Persistent Component), % Inhibition @ 10 uM) worked out at 25%; in assay [2] (setting [3]) it was 35%. Take `CCc1cccc(NC(=NC#N)Nc2cccc3ccccc23)c1` [N-(α-Naphthyl)-N'-(m-ethylphenyl)-N"-cyano-guanidine]: in assay [2] (setting [4]), the activity at 10 µM stood at 95%. Turning to `Cc1ccccc1CNCc1ccccc1C` [Di-(o-methyl)benzyl)amine], in assay [1], the activity at 30 µM was determined as 100%. With `CCc1cccc(N(C)C(=N)Nc2cccc3ccccc23)c1` [N-(1-naphthyl)-N'-(m-ethylphenyl)-N'-methylguanidine], the activity at 30 µM in assay [1] (30 μM, Control = 100, K+ depolarization) is 76%. In addition, the activity at 100 µM in assay [1] (100 μM, Control = 100, K+ depolarization) amounted to 21%. `Cc1ccccc1N1CCCCN(c2ccccc2C)C1=N` [N,N'-Bis(o-tolyl)-N,N'-butanyl(bridge)-guanidine]: the activity at 10 µM in assay [2] (setting [4]) is 119%. On the same count and under the same terms, then `N=C(Nc1cccc2ccccc12)NN1CCCCC1` [N-(α-Naphthyl)-N'-(1-piperidinyl)-guanidine], with 131%. Turning to `CCc1cccc(NC(=N)Nc2cccc3ccccc23)c1` [N-(3-ethylphenyl)-N'-(1-naphthyl)guanidine], the activity at 30 µM in assay [1] is 59%. Still for that read-out and setting: then `N=C(NC1CCCCC1)NC12CC3CC(CC(C3)C1)C2` [N-(adamantan-1-yl)-N'-cyclohexylguanidine], with 120%. One may read the IC50 as the point on the concentration scale where inhibition reaches its midpoint. For the compound `N=C(Nc1cccc2ccccc12)Nc1ccc2c3c(cccc13)CC2` [N-(5-acenaphthyl)-N'-(1-naphthyl)guanidine], the inhibition at 10 µM in assay [2] (setting [3]) is 40 ± 6%. The IC50 in assay [2] (setting [5]) is 16.2 ± 0.4 µM. `CCc1cccc(N(C)C(=N)Nc2cccc3ccc(=O)oc23)c1` [N-(8-Aminocoumarinyl)-N'-(m-ethylphenyl)-N'-methyl-guanidine]: in assay [2] (setting [4]), the activity at 10 µM worked out at 151%.

As to `N=C(Nc1cccc2nsnc12)NC12CC3CC(CC(C3)C1)C2` [N-(Adamantan-1-yl)-N'-(4,5-benzo-2-thia-1,3-diazol-6-yl)guanidine], the “% Uptake vs. Control” value in assay [2] (setting [6]) is 98%.

Consider `Cc1ccccc1NC(=N)NC1C2CC3CC(C2)CC1C3` (stereo not drawn) [N-(adamantan-2-yl)-N'-(2-methylphenyl)guanidine], for which the activity at 30 µM in assay [1] amounted to 100%. `CC(C)c1ccc(NC(=N)Nc2ccc3c4c(cccc24)CC3)cc1` [N-(3- and 5-Acenaphthyl)-N'-(4-isopropylphenyl)-guanidine.HCl]: the inhibition at 10 µM in assay [2] (setting [3]) worked out at 68%. Also, the half-maximal inhibitory concentration (IC50) in assay [2] (setting [5]) was 6.5 ± 1 µM. In the case of `N=C(NCC12CC3CC(CC(C3)C1)C2)NCC12CC3CC(CC(C3)C1)C2` [N-N'-Bis(1-Adamantanemethyl)-guanidine], in assay [2] (setting [4]), the activity at 10 µM was determined as 111%. As for `N=C(Nc1ccccc1I)N[C@H]1C[C@H]2CC[C@@H]1C2` (relative stereo) [N-((±)-endo-2-norbornyl)-N' (2-iodophenyl)guanidine], the activity at 30 µM in assay [1] is 77%. In the case of `Cc1ccccc1NC(=N)NC12CC3CC(CC(C3)C1)C2` [N-(adamantan-1-yl)-N'-(2-methylphenyl)guanidine], in assay [1], the activity at 30 µM worked out at 52% and the activity at 100 µM is 45%. For the compound `N=C(Nc1ccccc1I)Nc1cccc2ccccc12` [N-(α-naphthyl)-N'-(2-iodophenyl)guanidine], the activity at 30 µM in assay [1] was 77%. Take `CC(C)(C)c1ccc(NC(=N)Nc2ccc(C(C)(C)C)cc2)cc1` [N,N'-Bis(p-tert.-butylphenyl) guanidine]: the inhibition at 10 µM in assay [2] (setting [3]) came out at 47%. Consider `N=C(Nc1ccccc1I)NC12CC3CC(CC(C3)C1)C2` [N-(adamantan-1-yl)-N'-(2-iodophenyl)guanidine], for which the activity at 30 µM in assay [1] is 39%. Same read-out and setting: then `CC(C)c1ccccc1NC(=N)N(C)c1cccc2ccccc12` [N-(1-naphthyl)-N-methyl-N'-(o-isopropylphenyl)guanidine], with 95%; and `CCc1cccc(NC(=N)N(C)c2cccc(CC)c2)c1` [N,N'-di-(3-ethylphenyl)-N-methylguanidine], with 88%. Take `CC(C)c1ccc(NC(=N)Nc2ccc(C(C)C)cc2)cc1` [N,N'-Di-(4-isopropylphenyl)guanidine]: in assay [2] (setting [3]), the inhibition at 10 µM amounted to 48%. Further, the half-maximal inhibitory concentration (IC50) in assay [2] (setting [5]) is 19 ± 7 µM. Turning to `CCOC(=O)c1cc2cccc(NC(=N)N(C)c3cccc(CC)c3)c2o1` [N-(m-Ethylphenyl)-N'-(2-carboethoxy-7-benzofuranyl)-N-methyl guanidine], in assay [2] (setting [4]), the activity at 10 µM was 71%.

As to `N=C(NN1CCCc2ccccc21)NN1CCCc2ccccc21` [N,N'-Bis(1,2,3,4-tetrahydro-1-quinolinyl)-guanidine], in assay [2] (setting [4]), the activity at 10 µM is 87%. On to `Cc1ccccc1NC(=N)Nc1ccccc1C` [N,N'-di-(o-tolyl)guanidine], for which the activity at 100 µM in assay [1] came to 91%. In the case of `N=C(NC1CCc2ccccc21)NC1CCc2ccccc21` (stereo not drawn) [N,N'-Bis(indan-1-yl)-guanidine], the activity at 10 µM in assay [2] (setting [4]) amounted to 88%. Turning to `N=C(Nc1ccccc1I)NC1C2CC3CC(C2)CC1C3` (stereo not drawn) [N-(adamantan-2-yl)-N'-(2-iodophenyl)guanidine], the activity at 30 µM in assay [1] came to 74%. As to `N=C(Nc1cccc2ccccc12)NC12CC3CC(CC(C3)C1)C2` [N-(Adamantan-1-yl)-N' (α-naphthyl)guanidine], the inhibition at 10 µM in assay [2] (setting [3]) amounted to 31%. Turning to `CCc1cccc(N2CCN(c3cccc(CC)c3)C2=N)c1` [N,N'-Bis(m-ethylphenyl)-2-imino-imidazolidine], in assay [2] (setting [4]), the activity at 10 µM amounted to 101%. Take `N=C(Nc1ccc2cccc3c2c1CC3)Nc1ccc2cccc3c2c1CC3` [N,N'-Bis (3-acenaphthyl)guanidine, N,N'-Bis (3-Acenaphthyl)Guanidine Hydrobromide]: the inhibition at 10 µM in assay [2] (setting [3]) worked out at 36%. In addition, the IC50 in assay [2] (Rattus norvegicus, read-out: Inhibition of 45Ca Uptake, IC50) was found to be 11 µM. Take “N-(α-Naphthyl)-N'-(4-phenylpiperidinyl)-guanidine”: the “% Uptake vs. Control” value in assay [2] (setting [6]) was found to be 79%. `CC(C)c1ccccc1NC(=N)Nc1cccc2ccccc12` [N-(1-naphthyl)-N'-(o-isopropylphenyl)guanidine]: the activity at 30 µM in assay [1] was 100%.

Regarding `Cc1ccccc1NC(=N)NC1CCCCC1` [N-cyclohexyl-N'-(2-methylphenyl)guanidine], the activity at 30 µM in assay [1] was 100%. `N=C(NC1C2CC3CC(C2)CC1C3)NC12CC3CC(CC(C3)C1)C2` (stereo not drawn) [N-(Adamantan-1-yl)-N'-(adamantan-2-yl)guanidine]: the inhibition at 10 µM in assay [2] (setting [3]) was 49%. Consider `N=C(Nc1ccccc1I)Nc1ccccc1I` [N,N'-di-(2-iodophenyl)guanidine], for which the activity at 100 µM in assay [1] came to 61%. Regarding `N=C(NC1CCCCC1)NN1CCCCC1` [N-(Cyclohexyl)-N'-(1-piperidinyl)-guanidine], the activity at 10 µM in assay [2] (setting [4]) turned out to be 108%. For the compound `N=C(Nc1ccc2c3c(cccc13)CC2)NC12CC3CC(CC(C3)C1)C2` [N-(5-acenaphthyl)-N'-(adamant-1-yl)guanidine], in assay [2] (setting [3]), the inhibition at 10 µM stood at 47 ± 11%. Further, the 50% inhibitory concentration (IC50) in assay [2] (setting [5]) came to 9.7 ± 3 µM.
